# Laboratory results as given in patent publication US11325899B2, “Benzofurane and benzothiophene derivatives as PGE2 receptor modulators” (IDORSIA PHARMACEUTICALS LTD, priority 2017, dated 2022).
# Target: T1, EP4 receptor (Homo sapiens, UniProt P35408)
# T1 construct: BT549 breast cancer cells, express high endogenous EP4 levels and very low EP2 levels; host or cells: BT549 breast cancer cells
# Test: hEP4 cAMP assay (BT549 breast cancer cells, HTRF cAMP, PGE2 stimulation)
# Type: cell-based
# Conditions: antagonistic activity, PGE2 6 nM (EC80)
# How it was run: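 BT549 cells, with endogenous EP4 and very low EP2, were preincubated 45 min at room temperature with compound in HBSS/HEPES/BSA buffer with 2 mM IBMX. They were then stimulated 30 min with 6 nM PGE2 (EC80). cAMP was measured by HTRF competitive immunoassay against a calibrator; IC50 from duplicate dose-response as % of DMSO control.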
# T1 sequence (P35408 whole entry): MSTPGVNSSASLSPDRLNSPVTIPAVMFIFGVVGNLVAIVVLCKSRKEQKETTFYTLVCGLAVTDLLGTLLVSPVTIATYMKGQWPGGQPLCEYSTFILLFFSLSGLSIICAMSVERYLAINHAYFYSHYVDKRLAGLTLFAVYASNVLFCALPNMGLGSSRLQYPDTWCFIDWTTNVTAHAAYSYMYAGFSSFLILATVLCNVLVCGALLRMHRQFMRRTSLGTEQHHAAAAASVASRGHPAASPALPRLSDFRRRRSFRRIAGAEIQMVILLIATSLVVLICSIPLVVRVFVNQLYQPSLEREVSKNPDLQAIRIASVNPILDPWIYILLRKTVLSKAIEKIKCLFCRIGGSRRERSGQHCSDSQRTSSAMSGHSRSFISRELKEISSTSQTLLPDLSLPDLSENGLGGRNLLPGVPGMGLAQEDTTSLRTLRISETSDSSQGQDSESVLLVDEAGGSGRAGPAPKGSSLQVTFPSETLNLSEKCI
row,IC50,Compound
1,0.027 µM,"COc1cccc2c(CCNc3cc(-c4ccc(C(=O)O)c(SC)c4)ncn3)c(C#N)sc12 [Example 13, 4-{6-[2-(2-Cyano-7-methoxy-benzo[b]thiophen-3-yl)-ethylamino]-pyrimidin-4-yl}-2-methylsulfanyl-benzoic acid]"
2,2.99 µM,"COc1cc(-c2cc(NCCc3c(C#N)sc4c(C)cc(F)cc34)ncn2)ccc1CC(=O)O [Example 168, (4-{6-[2-(2-Cyano-5-fluoro-7-methyl-benzo[b]thiophen-3-yl)-ethylamino]-pyrimidin-4-yl}-2-methoxy-phenyl)-acetic acid]"
3,0.105 µM,"CCOc1cc(-c2cc(NCCc3c(C)sc4c(C)cc(F)cc34)ncn2)ccc1-c1nnn[nH]1 [Example 142, {6-[3-Ethoxy-4-(1H-tetrazol-5-yl)-phenyl]-pyrimidin-4-yl}-[2-(5-fluoro-2,7-dimethyl-benzo[b]thiophen-3-yl)-ethyl]-amine]"
4,0.219 µM,"CCCOc1cc(-c2cc(NCCc3c(C)sc4c(C)cc(F)cc34)ncn2)ccc1CC(=O)O [Example 190, (4-{6-[2-(5-Fluoro-2,7-dimethyl-benzo[b]thiophen-3-yl)-ethylamino]-pyrimidin-4-yl}-2-propoxy-phenyl)-acetic acid]"
5,0.252 µM,"CCCc1cc(-c2cc(NCCc3c(C)sc4c(C)cc(F)cc34)ncn2)ccc1CC(=O)O [Example 186, (4-{6-[2-(5-Fluoro-2,7-dimethyl-benzo[b]thiophen-3-yl)-ethylamino]-pyrimidin-4-yl}-2-propyl-phenyl)-acetic acid]"
6,0.012 µM,"CCOc1cc(-c2cc(NCCc3c(C#N)sc4c(C)cc(F)cc34)ncn2)ccc1OCCC(=O)O [Example 176, 3-(4-{6-[2-(2-Cyano-5-fluoro-7-methyl-benzo[b]thiophen-3-yl)-ethylamino]-pyrimidin-4-yl}-2-ethoxy-phenoxy)-propionic acid]"
7,0.11 µM,"CCOc1cc(-c2cc(NCCc3c(C)sc4c(C)c(F)ccc34)ncn2)ccc1OCC(=O)O [Example 119, (2-Ethoxy-4-{6-[2-(6-fluoro-2,7-dimethyl-benzo[b]thiophen-3-yl)-ethylamino]-pyrimidin-4-yl}-phenoxy)-acetic acid]"
8,0.136 µM,"CCOc1cc(-c2cc(NCCc3c(C)sc4c(C)cccc34)ncn2)ccc1OCC(=O)O [Example 122, (4-{6-[2-(2,7-Dimethyl-benzo[b]thiophen-3-yl)-ethylamino]-pyrimidin-4-yl}-2-ethoxy-phenoxy)-acetic acid]"
9,0.02 µM,"CSc1cc(-c2cc(NCCc3c(C#N)sc4c(C)cc(F)cc34)ncn2)ccc1C(=O)O [Example 12, 4-{6-[2-(2-Cyano-5-fluoro-7-methyl-benzo[b]thiophen-3-yl)-ethylamino]-pyrimidin-4-yl}-2-methylsulfanyl-benzoic acid]"
10,0.029 µM,"CCCc1cc(-c2cc(NCCc3c(C#N)sc4c(C)cc(F)cc34)ncn2)ccc1C(=O)O [Example 167, 4-{6-[2-(2-Cyano-5-fluoro-7-methyl-benzo[b]thiophen-3-yl)-ethylamino]-pyrimidin-4-yl}-2-propyl-benzoic acid]"
11,0.255 µM,"CCOc1cc(-c2cc(NCCc3c(C)sc4c(C)ccc(F)c34)ncn2)ccc1CC(=O)O [Example 107, (2-Ethoxy-4-{6-[2-(4-fluoro-2,7-dimethyl-benzo[b]thiophen-3-yl)-ethylamino]-pyrimidin-4-yl}-phenyl)-acetic acid]"
12,0.03 µM,"CCOc1cc(-c2cc(NCCc3c(C#N)sc4c(C)cc(F)cc34)ncn2)ccc1CC(=O)O [Example 104, (4-{6-[2-(2-Cyano-5-fluoro-7-methyl-benzo[b]thiophen-3-yl)-ethylamino]-pyrimidin-4-yl}-2-ethoxy-phenyl)-acetic acid]"
13,0.07 µM,"Cc1cc(F)cc2c(CCNc3cc(-c4ccc(C(=O)O)c(OC(C)C)c4)ncn3)c(C#N)sc12 [Example 172, 4-{6-[2-(2-Cyano-5-fluoro-7-methyl-benzo[b]thiophen-3-yl)-ethylamino]-pyrimidin-4-yl}-2-isopropoxy-benzoic acid]"

# Continued, compound first:
row,Compound,IC50
1,"Cc1oc2c(C)cc(F)cc2c1CCNc1cc(-c2ccc(C(=O)O)c(OC3CCC3)c2)ncn1 [Example 140, 2-Cyclobutoxy-4-{6-[2-(5-fluoro-2,7-dimethyl-benzofuran-3-yl)-ethylamino]-pyrimidin-4-yl}-benzoic acid]",0.58 µM
2,"Cc1oc2c(C)cc(F)cc2c1CCNc1cc(-c2ccc(C(=O)O)c(OC3CCCC3)c2)ncn1 [Example 154, 2-Cyclopentyloxy-4-{6-[2-(5-fluoro-2,7-dimethyl-benzofuran-3-yl)-ethylamino]-pyrimidin-4-yl}-benzoic acid]",0.901 µM
3,"Cc1sc2c(C)cc(F)cc2c1CCNc1cc(-c2ccc(C(=O)O)c(OCC(C)C)c2)ncn1 [Example 184, 4-{6-[2-(5-Fluoro-2,7-dimethyl-benzo[b]thiophen-3-yl)-ethylamino]-pyrimidin-4-yl}-2-isobutoxy-benzoic acid]",0.553 µM
4,"COc1cc(Cl)cc2c(CCNc3cc(-c4ccc(C(=O)O)c(OC5CCC5)c4)ncn3)c(C)oc12 [Example 133, 4-{6-[2-(5-Chloro-7-methoxy-2-methyl-benzofuran-3-yl)-ethylamino]-pyrimidin-4-yl}-2-cyclobutoxy-benzoic acid]",0.17 µM
5,"COc1ccc(Cl)c2c(CCNc3cc(-c4ccc(C(=O)O)c(OC5CCC5)c4)ncn3)c(C)sc12 [Example 135, 4-{6-[2-(4-Chloro-7-methoxy-2-methyl-benzo[b]thiophen-3-yl)-ethylamino]-pyrimidin-4-yl}-2-cyclobutoxy-benzoic acid]",0.198 µM
6,"Cc1sc2c(C)ccc(F)c2c1CCNc1cc(-c2cc(F)c(C(=O)O)c(OC3CCC3)c2)ncn1 [Example 148, 2-Cyclobutoxy-6-fluoro-4-{6-[2-(4-fluoro-2,7-dimethyl-benzo[b]thiophen-3-yl)-ethylamino]-pyrimidin-4-yl}-benzoic acid]",0.238 µM
7,"CCOc1cc(-c2cc(NCCc3c(C)sc4c(C)cc(F)cc34)ncn2)sc1C(=O)NS(C)(=O)=O [Example 157, N-(3-Ethoxy-5-{6-[2-(5-fluoro-2,7-dimethyl-benzo[b]thiophen-3-yl)-ethylamino]-pyrimidin-4-yl}-thiophene-2-carbonyl)-methanesulfonamide]",0.069 µM
8,"CCOc1cc(-c2cc(NCCc3c(C)sc4c(C)cc(F)cc34)ncn2)sc1-c1nnn[nH]1 [Example 158, {6-[4-Ethoxy-5-(1H-tetrazol-5-yl)-thiophen-2-yl]-pyrimidin-4-yl}-[2-(5-fluoro-2,7-dimethyl-benzo[b]thiophen-3-yl)-ethyl]-amine]",0.02 µM
9,"Cc1sc2c(C)cccc2c1CCNc1cc(-c2ccc(C(=O)O)c(SC3COC3)c2)ncn1 [Example 131, 4-{6-[2-(2,7-Dimethyl-benzo[b]thiophen-3-yl)-ethylamino]-pyrimidin-4-yl}-2-(oxetan-3-ylsulfanyl)-benzoic acid]",0.625 µM
10,"CCOc1nc(-c2cc(NCCc3c(C)sc4c(C)cc(F)cc34)ncn2)sc1-c1noc(=O)[nH]1 [Example 162, 3-(4-Ethoxy-2-{6-[2-(5-fluoro-2,7-dimethyl-benzo[b]thiophen-3-yl)-ethylamino]-pyrimidin-4-yl}-thiazol-5-yl)-[1,2,4]oxadiazol-5(4H)-one [tautomeric form: 3-(4-ethoxy-2-(6-((2-(5-fluoro-2,7-dimethylbenzo[b]thiophen-3-yl)ethyl)amino)pyrimidin-4-yl)thiazol-5-yl)-[1,2,4]oxadiazol-5-ol]]",0.051 µM
11,"COc1cc(F)c(F)c2c(CCNc3cc(-c4ccc(C(=O)O)c(OC5CCC5)c4)ncn3)c(C)oc12 [Example 141, 2-Cyclobutoxy-4-{6-[2-(4,5-difluoro-7-methoxy-2-methyl-benzofuran-3-yl)-ethylamino]-pyrimidin-4-yl}-benzoic acid]",0.582 µM
12,"Cc1sc2c(C)cc(F)cc2c1CCNc1cc(-c2ccc(C(=O)O)c(OC3CCC3)c2)ncn1 [Example 138, 2-Cyclobutoxy-4-{6-[2-(5-fluoro-2,7-dimethyl-benzo[b]thiophen-3-yl)-ethylamino]-pyrimidin-4-yl}-benzoic acid]",0.478 µM
13,"CCCOc1cc(-c2cc(NCCc3c(C)sc4c(Cl)ccc(Cl)c34)ncn2)ccc1C(=O)O [Example 102, 4-{6-[2-(4,7-Dichloro-2-methyl-benzo[b]thiophen-3-yl)-ethylamino]-pyrimidin-4-yl}-2-propoxy-benzoic acid]",0.867 µM
14,"Cc1oc2c(Cl)cccc2c1CCNc1cc(-c2ccc(C(=O)O)c(OC3CCC3)c2)ncn1 [Example 137, 4-{6-[2-(7-Chloro-2-methyl-benzofuran-3-yl)-ethylamino]-pyrimidin-4-yl}-2-cyclobutoxy-benzoic acid]",0.423 µM
15,"COc1ccc(Cl)c2c(CCNc3cc(-c4ccc(C(=O)O)c(O)c4)ncn3)c(C)sc12 [Example 9, 4-{6-[2-(4-Chloro-7-methoxy-2-methyl-benzo[b]thiophen-3-yl)-ethylamino]-pyrimidin-4-yl}-2-hydroxy-benzoic acid]",0.55 µM
16,"CCc1nc(-c2cc(NCCc3c(C)sc4c(C)cc(F)cc34)ncn2)sc1-c1noc(=O)[nH]1 [Example 163, 3-(4-Ethyl-2-{6-[2-(5-fluoro-2,7-dimethyl-benzo[b]thiophen-3-yl)-ethylamino]-pyrimidin-4-yl}-thiazol-5-yl)-[1,2,4]oxadiazol-5(4H)-one [tautomeric form: 3-(4-ethyl-2-(6-((2-(5-fluoro-2,7-dimethylbenzo[b]thiophen-3-yl)ethyl)amino)pyrimidin-4-yl)thiazol-5-yl)-[1,2,4]oxadiazol-5-ol]]",0.429 µM
17,"Cc1sc2c(C)cccc2c1CCNc1cc(-c2ccc(C(=O)O)c(SCC(C)C)c2)ncn1 [Example 166, 4-{6-[2-(2,7-Dimethyl-benzo[b]thiophen-3-yl)-ethylamino]-pyrimidin-4-yl}-2-isobutylsulfanyl-benzoic acid]",1.13 µM
18,"COc1ccc(Cl)c2c(CCNc3cc(-c4cc(C)c(C(=O)O)s4)ncn3)c(C)sc12 [Example 5, 5-{6-[2-(4-Chloro-7-methoxy-2-methyl-benzo[b]thiophen-3-yl)-ethylamino]-pyrimidin-4-yl}-3-methyl-thiophene-2-carboxylic acid]",0.479 µM
